Measurements taken from patent US20250115669A1, “FGFR1/KLB Targeting Agonistic Antigen-Binding Proteins and Conjugates Thereof with GLP-1R Agonistic Peptides” (SANOFI, priority 2020, published 2025).
Where two headings read alike, the source gives them in different places. Peptide text beside a SMILES is read from it.

What was measured:
Assay type in all cases: cell-based
[1] = target: T1, human glucagon (GCG) receptor (Homo sapiens, UniProt P47871); experiment: HTRF cAMP assay in HEK-293 cells expressing human glucagon receptor; settings: HEK-293 cells; read-out: HTRF cAMP EC50 Human GCGR
T1 construct: expressed in transfected cells; host or cells: PSC-HEK-293
Procedure: (§1) Each vial contained 1.8 ml cells. The vials were slowly frozen to −80° C. in isopropanol, and then transferred in liquid nitrogen for storage.
(§2) Cells were resuspended in assay buffer (cell buffer plus 2 mM IBMX) and adjusted to a cell density of 1 million cells/ml.
(§3) For measurement of cAMP generation, 5 μl cells (final 5000 cells/well) and 5 μl of test compound were added to a 384-well plate, followed by incubation for 30 min at room temperature.
(§4) The cAMP generated was determined using a kit from Cisbio Corp. based on HTRF (Homogenous Time Resolved Fluorescence). The cAMP assay was performed according to manufacturer's instructions (Cisbio).

human GLP-1 receptor = target: T2, human GLP-1 receptor (Homo sapiens, UniProt P43220); experiment: HTRF cAMP assay in HEK-293 cells expressing human GLP-1 receptor
T2 construct: expressed in transfected cells; host or cells: PSC-HEK-293
Procedure: as §1, §2, §3, §4

human GIP receptor = target: T3, human GIP receptor (Homo sapiens, UniProt P48546); experiment: HTRF cAMP assay in HEK-293 cells expressing human GIP receptor; settings: HEK-293 cells; read-out: HTRF cAMP EC50 Human GIPR
T3 construct: expressed in transfected cells; host or cells: PSC-HEK-293
T3 sequence (P48546 22-466): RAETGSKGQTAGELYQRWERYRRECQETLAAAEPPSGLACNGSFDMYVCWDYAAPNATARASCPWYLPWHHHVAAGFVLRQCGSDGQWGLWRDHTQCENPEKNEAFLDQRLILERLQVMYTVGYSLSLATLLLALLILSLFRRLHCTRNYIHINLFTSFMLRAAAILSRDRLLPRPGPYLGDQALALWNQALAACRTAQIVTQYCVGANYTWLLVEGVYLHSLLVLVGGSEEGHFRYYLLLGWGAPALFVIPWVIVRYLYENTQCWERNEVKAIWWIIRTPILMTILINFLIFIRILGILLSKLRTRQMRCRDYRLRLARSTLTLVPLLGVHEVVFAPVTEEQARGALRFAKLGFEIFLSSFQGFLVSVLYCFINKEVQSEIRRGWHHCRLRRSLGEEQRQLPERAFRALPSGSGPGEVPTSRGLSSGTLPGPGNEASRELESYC
Procedure: as §1, §2, §3, §4

T2 sequence (P43220 24-463): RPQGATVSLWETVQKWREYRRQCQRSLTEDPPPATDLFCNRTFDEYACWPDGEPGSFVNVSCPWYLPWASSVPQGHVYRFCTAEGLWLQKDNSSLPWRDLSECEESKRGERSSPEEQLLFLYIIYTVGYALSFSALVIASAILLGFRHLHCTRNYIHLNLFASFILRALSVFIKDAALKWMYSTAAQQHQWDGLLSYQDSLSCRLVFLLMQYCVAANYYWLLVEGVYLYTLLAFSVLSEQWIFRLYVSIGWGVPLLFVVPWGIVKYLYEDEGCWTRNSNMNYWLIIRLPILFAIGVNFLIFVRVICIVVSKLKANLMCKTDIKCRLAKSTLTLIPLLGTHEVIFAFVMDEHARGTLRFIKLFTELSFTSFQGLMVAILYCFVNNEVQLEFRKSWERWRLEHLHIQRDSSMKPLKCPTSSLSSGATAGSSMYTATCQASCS
T1 sequence (P47871 26-477): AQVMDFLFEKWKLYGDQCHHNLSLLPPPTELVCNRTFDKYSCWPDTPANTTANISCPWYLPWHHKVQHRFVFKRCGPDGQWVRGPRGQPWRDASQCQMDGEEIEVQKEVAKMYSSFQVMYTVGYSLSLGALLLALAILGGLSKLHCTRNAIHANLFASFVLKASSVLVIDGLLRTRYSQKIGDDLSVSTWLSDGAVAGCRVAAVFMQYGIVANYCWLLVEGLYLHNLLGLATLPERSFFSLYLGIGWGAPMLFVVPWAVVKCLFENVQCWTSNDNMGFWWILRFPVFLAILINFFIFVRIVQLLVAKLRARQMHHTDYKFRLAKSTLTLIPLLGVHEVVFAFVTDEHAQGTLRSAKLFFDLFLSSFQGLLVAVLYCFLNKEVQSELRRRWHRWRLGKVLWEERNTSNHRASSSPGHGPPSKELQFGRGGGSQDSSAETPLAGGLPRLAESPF

Row | Structure (SMILES) | EC50 [1] [nM] | EC50 (human GLP-1 receptor; HEK-293 cells, read-out: HTRF cAMP EC50 Human GLP-1R) [nM] | EC50 (human GIP receptor) [nM] | EC50 (human GLP-1 receptor) [nM]
1 | CC[C@H](C)[C@H](NC(=O)[C@H](Cc1ccccc1)NC(=O)[C@H](CC(C)C)NC(=O)[C@H](CCC(N)=O)NC(=O)[C@@H](NC(=O)[C@H](C)NC(=O)[C@H](CCC(=O)O)NC(=O)[C@H](CCC(=O)O)NC(=O)[C@H](CCC(=O)O)NC(=O)[C@H](CC(C)C)NC(=O)[C@H](CCC(N)=O)NC(=O)[C@H](CCCCN)NC(=O)[C@H](CO)NC(=O)[C@H](CC(C)C)NC(=O)[C@H](CC(=O)O)NC(=O)[C@H](CO)NC(=O)[C@@H](NC(=O)[C@H](Cc1ccccc1)NC(=O)[C@@H](NC(=O)CNC(=O)[C@H](CCC(=O)O)NC(=O)CNC(=O)[C@H](Cc1c[nH]cn1)NC(=O)CN)[C@@H](C)O)[C@@H](C)O)C(C)C)C(=O)N[C@@H](C)C(=O)N[C@@H](Cc1c[nH]c2ccccc12)C(=O)N[C@@H](CC(C)C)C(=O)N[C@H](C(=O)N[C@@H](CCCCN)C(N)=O)C(C)C [Ab P041] (H-GHGEGTFTSDLSKQLEEEAVQLFIAWLVK-NH2; N-terminus assumed) | > 10 | 0.0325 | > 10 | 
2 | CC[C@H](C)[C@H](NC(=O)[C@H](CO)NC(=O)[C@H](CC(C)C)NC(=O)[C@H](CC(=O)O)NC(=O)[C@H](CO)NC(=O)[C@@H](NC(=O)[C@H](Cc1ccccc1)NC(=O)[C@@H](NC(=O)CNC(=O)[C@H](CCC(=O)O)NC(=O)CNC(=O)[C@H](Cc1c[nH]cn1)NC(=O)CN)[C@@H](C)O)[C@@H](C)O)C(=O)N[C@@H](CCC(N)=O)C(=O)N[C@@H](CC(C)C)C(=O)N[C@@H](CCC(=O)O)C(=O)N[C@@H](CCC(=O)O)C(=O)N[C@@H](CCC(=O)O)C(=O)N[C@@H](C)C(=O)N[C@H](C(=O)N[C@@H](CCCNC(=N)N)C(=O)N[C@@H](CC(C)C)C(=O)N[C@@H](Cc1ccccc1)C(=O)N[C@H](C(=O)N[C@@H](CCC(=O)O)C(=O)N[C@@H](Cc1c[nH]c2ccccc12)C(=O)N[C@@H](CC(C)C)C(=O)N[C@@H](CC(C)C)C(=O)N[C@@H](C)C(=O)NCC(=O)NCC(=O)N1CCC[C@H]1C(=O)N[C@@H](CO)C(=O)N[C@@H](CO)C(=O)NCC(=O)N[C@@H](C)C(=O)N1CCC[C@H]1C(=O)N1CCC[C@H]1C(=O)N1CCC[C@H]1C(=O)N[C@@H](CO)C(N)=O)[C@@H](C)CC)C(C)C [Ab P019] |  |  |  | 0.0276
3 | CC[C@H](C)[C@H](NC(=O)[C@H](CO)NC(=O)[C@H](CC(C)C)NC(=O)[C@H](CC(=O)O)NC(=O)[C@H](CO)NC(=O)[C@@H](NC(=O)[C@H](Cc1ccccc1)NC(=O)[C@@H](NC(=O)CNC(=O)[C@H](CCC(=O)O)NC(=O)CNC(=O)[C@@H](N)Cc1c[nH]cn1)[C@@H](C)O)[C@@H](C)O)C(=O)N[C@@H](CCC(N)=O)C(=O)N[C@@H](CC(C)C)C(=O)N[C@@H](CC(=O)O)C(=O)N[C@@H](CCC(=O)O)C(=O)N[C@@H](CCC(=O)O)C(=O)N[C@@H](C)C(=O)N[C@H](C(=O)N[C@@H](CCCNC(=N)N)C(=O)N[C@@H](CC(C)C)C(=O)N[C@@H](Cc1ccccc1)C(=O)N[C@H](C(=O)N[C@@H](CCC(=O)O)C(=O)N[C@@H](Cc1c[nH]c2ccccc12)C(=O)N[C@@H](CC(C)C)C(=O)N[C@@H](CCC(=O)O)C(=O)N[C@@H](C)C(=O)N[C@H](C(=O)NCC(=O)N1CCC[C@H]1C(=O)N[C@H](C(=O)N[C@@H](CO)C(=O)NCC(=O)N[C@@H](C)C(=O)N1CCC[C@H]1C(=O)N1CCC[C@H]1C(=O)N1CCC[C@H]1C(=O)N[C@@H](CO)C(N)=O)C(C)C)[C@@H](C)O)[C@@H](C)CC)C(C)C [Ab P006] (H-HGEGTFTSDLSIQLDEEAVRLFIEWLEATGPVSGAPPPS-NH2) |  |  |  | 0.0147
4 | CC[C@H](C)[C@H](NC(=O)[C@H](Cc1ccccc1)NC(=O)[C@H](CC(C)C)NC(=O)[C@H](CCC(N)=O)NC(=O)[C@@H](NC(=O)[C@H](C)NC(=O)[C@H](CCC(=O)O)NC(=O)[C@H](CCC(=O)O)NC(=O)[C@H](CCC(=O)O)NC(=O)[C@H](CC(C)C)NC(=O)[C@H](CCC(N)=O)NC(=O)[C@H](CCCCN)NC(=O)[C@H](CO)NC(=O)[C@H](CC(C)C)NC(=O)[C@H](CC(=O)O)NC(=O)[C@H](CO)NC(=O)[C@@H](NC(=O)[C@H](Cc1ccccc1)NC(=O)[C@@H](NC(=O)CNC(=O)[C@H](CCC(=O)O)NC(=O)CNC(=O)[C@@H](N)Cc1c[nH]cn1)[C@@H](C)O)[C@@H](C)O)C(C)C)C(=O)N[C@@H](CCC(=O)O)C(=O)N[C@@H](Cc1c[nH]c2ccccc12)C(=O)N[C@@H](CC(C)C)C(=O)N[C@@H](CC(C)C)C(=O)N[C@@H](C)C(=O)N[C@H](C(=O)NCC(=O)N1CCC[C@H]1C(=O)N[C@@H](CO)C(=O)N[C@@H](CO)C(=O)NCC(=O)N[C@@H](C)C(=O)N1CCC[C@H]1C(=O)N1CCC[C@H]1C(=O)N1CCC[C@H]1C(=O)N[C@@H](CO)C(N)=O)[C@@H](C)O [Ab P010] (H-HGEGTFTSDLSKQLEEEAVQLFIEWLLATGPSSGAPPPS-NH2) |  |  |  | 0.0035
5 | CC[C@H](C)[C@H](NC(=O)[C@H](CO)NC(=O)[C@H](CC(C)C)NC(=O)[C@H](CC(=O)O)NC(=O)[C@H](CO)NC(=O)[C@@H](NC(=O)[C@H](Cc1ccccc1)NC(=O)[C@@H](NC(=O)CNC(=O)[C@H](CCC(=O)O)NC(=O)CNC(=O)[C@H](Cc1c[nH]cn1)NC(=O)CN)[C@@H](C)O)[C@@H](C)O)C(=O)N[C@@H](CCC(N)=O)C(=O)N[C@@H](CC(C)C)C(=O)N[C@@H](CCC(=O)O)C(=O)N[C@@H](CCC(=O)O)C(=O)N[C@@H](CCC(=O)O)C(=O)N[C@@H](C)C(=O)N[C@H](C(=O)N[C@@H](CCCNC(=N)N)C(=O)N[C@@H](CC(C)C)C(=O)N[C@@H](Cc1ccccc1)C(=O)N[C@H](C(=O)N[C@@H](CCC(=O)O)C(=O)N[C@@H](Cc1c[nH]c2ccccc12)C(=O)N[C@@H](CC(C)C)C(=O)N[C@@H](CC(C)C)C(=O)N[C@@H](C)C(=O)N[C@H](C(=O)NCC(=O)N1CCC[C@H]1C(=O)N[C@@H](CO)C(=O)N[C@@H](CO)C(=O)NCC(=O)N[C@@H](C)C(=O)N1CCC[C@H]1C(=O)N1CCC[C@H]1C(=O)N1CCC[C@H]1C(=O)N[C@@H](CO)C(N)=O)[C@@H](C)O)[C@@H](C)CC)C(C)C [Ab P020] |  |  |  | 0.206
6 | CC[C@H](C)[C@H](NC(=O)[C@H](CO)NC(=O)[C@H](CC(C)C)NC(=O)[C@H](CC(=O)O)NC(=O)[C@H](CO)NC(=O)[C@@H](NC(=O)[C@H](Cc1ccccc1)NC(=O)[C@@H](NC(=O)CNC(=O)[C@H](CCC(=O)O)NC(=O)CNC(=O)[C@@H](N)Cc1c[nH]cn1)[C@@H](C)O)[C@@H](C)O)C(=O)N[C@@H](CCC(N)=O)C(=O)N[C@@H](CC(C)C)C(=O)N[C@@H](CC(=O)O)C(=O)N[C@@H](CCC(=O)O)C(=O)N[C@@H](CCC(=O)O)C(=O)N[C@@H](C)C(=O)N[C@H](C(=O)N[C@@H](CCCNC(=N)N)C(=O)N[C@@H](CC(C)C)C(=O)N[C@@H](Cc1ccccc1)C(=O)N[C@H](C(=O)N[C@@H](CCC(=O)O)C(=O)N[C@@H](Cc1c[nH]c2ccccc12)C(=O)N[C@@H](CC(C)C)C(=O)N[C@@H](CC(C)C)C(=O)N[C@@H](C)C(=O)N[C@H](C(=O)NCC(=O)N1CCC[C@H]1C(=O)N[C@H](C(=O)N[C@@H](CO)C(=O)NCC(=O)N[C@@H](C)C(=O)N1CCC[C@H]1C(=O)N1CCC[C@H]1C(=O)N1CCC[C@H]1C(=O)N[C@@H](CO)C(N)=O)C(C)C)[C@@H](C)O)[C@@H](C)CC)C(C)C [Ab P005] |  |  |  | 0.0031
7 | CC[C@H](C)[C@H](NC(=O)[C@H](CC(C)C)NC(=O)[C@H](Cc1c[nH]c2ccccc12)NC(=O)[C@H](CCC(=O)O)NC(=O)[C@@H](NC(=O)[C@H](Cc1ccccc1)NC(=O)[C@H](CCC(=O)O)NC(=O)[C@H](Cc1c[nH]cn1)NC(=O)[C@H](CCC(N)=O)NC(=O)[C@H](C)NC(=O)[C@H](CCCNC(=N)N)NC(=O)[C@H](CCCCN)NC(=O)[C@H](CCC(=O)O)NC(=O)[C@H](CC(C)C)NC(=O)[C@H](CC(C)C)NC(=O)[C@H](CCCCN)NC(=O)[C@H](CO)NC(=O)[C@H](CC(C)C)NC(=O)[C@H](CC(=O)O)NC(=O)[C@H](CO)NC(=O)[C@@H](NC(=O)[C@H](Cc1ccccc1)NC(=O)[C@@H](NC(=O)CNC(=O)[C@H](CCC(=O)O)NC(=O)CNC(=O)[C@@H](N)Cc1c[nH]cn1)[C@@H](C)O)[C@@H](C)O)[C@@H](C)CC)C(=O)N[C@@H](C)C(=O)NCC(=O)NCC(=O)N1CCC[C@H]1C(=O)N[C@@H](CO)C(=O)N[C@@H](CO)C(=O)NCC(=O)N[C@@H](CCCCN)C(=O)N1CCC[C@H]1C(=O)N1CCC[C@H]1C(=O)N1CCC[C@H]1C(=O)N[C@@H](CCCCN)C(N)=O [Ab P028] (H-HGEGTFTSDLSKLLEKRAQHEFIEWLIAGGPSSGKPPPK-NH2; N-terminus assumed) | > 10 |  | 0.39 | 
